In brackets after ≈: the same amount, converted by molar mass. Several values for one entry are separate records, joined by “and”; a condition that tells them apart may be missing. Equal entries are not always repeated. Entries after “also recorded” stand apart in the source; their conditions may differ.
Legend:
[1] = target: T1, recombinant Staphylococcus aureus DHFR (SaDHFR) (Staphylococcus aureus, UniProt P0A017); test: Inhibition of recombinant S. aureus DHFR; format: biochemical; conditions: in vitro
T1 construct: made in house
Procedure: To explore this, oxidization of DHP 7a to the pyrimidine 8a was performed using phenyliodine diacetate (PIDA) (Figure 3a),[12]−[14] as this oxidation state mimics FDA approved antimicrobial DHFR inhibitors trimethoprim 1 (Figure 1a) and pyrimethamine 9 (Figure 3b).

[2] = test system: Staphylococcus aureus; test: S. aureus growth inhibition (all three strains or strain not specified); format: cell-based; conditions: for antibacterial activity (in words): S. aureus growth; for MIC: Staphylococcus aureus, all three S. aureus strains or strain not specified, read-out: concentration inhibiting S. aureus growth (MIC)
Procedure: (§1) These 24 DHP analogues were then screened for inhibition of Staphylococcus aureus growth using microdilution assays. Growth inhibition was examined in methicillin-sensitive S. aureus (ATCC 12600) and two strains of MRSA (ATCC 33591 and ATCC 43300). Antibiotic controls were included in the screen, including carbenicillin, erythromycin, gentamycin, trimethoprim, and vancomycin, and minimum inhibitory concentrations (MICs) were determined for each compound, which were defined as the concentration required to inhibit >95% of bacterial growth (Table 1).
(§2) Antibacterial Microdilution Assay (MIC Determination)
(§3) 1240 The MIC determination assays were performed in a BSL-2 laboratory with appropriate security and biosafety measures. The MICs were determined using a broth microdilution assay closely following the guidelines of the Clinical and Laboratories Standards Institute (CLSI). MICs were determined in duplicate for two biological replicates using 2-fold serial dilutions of test compounds or commercial antibiotics in cation-adjusted Mueller-Hinton broth. The central 60 wells of 96-well plates were 1245 prepared with the compound of interest at the indicated concentration, where 2 µL of the compound in DMSO were added prior to the addition of the culture. Overnight cultures of the different Staphylococcus aureus strains were diluted to provide an initial inoculum of approximately 5 X 10 5 CFU/mL that was delivered to each well in 198 µL of culture (final DMSO concentration of ~1%). Initial inoculum concentrations were verified by plating to count CFU/mL. Each plate was equipped with 1250 experimental controls for full growth (6 wells) and full growth inhibition (6 wells), and all control wells were in the presence of 1% DMSO. The outer 36 wells were filled with 200 µL of culture each to prevent growth effects on the interior 60 wells. The plates were incubated at 37 °C for 18 hours, at which time they were removed from the incubator and were allowed to equilibrate to room temperature for 30 minutes. Absorbance of each well at 600 nm was then read using a microplate reader to 1255 determine the MIC, and visual confirmation of growth inhibition was also performed. If variation was seen in the experimental values, the highest value of two independent trials was listed.

[3] = test system: Staphylococcus aureus ATCC 43300 (MRSA); test: Antibacterial broth microdilution assay (MIC), MRSA ATCC 43300; format: cell-based; conditions: amount inhibiting >95% of growth (A600), 18 h, suffix 'I' = partial growth inhibition at the value, >95% at higher concentrations; for MIC: Staphylococcus aureus, read-out: MIC ATCC 43300
Procedure: as §1, §2, §3

[4] = test system: red blood cells (defibrinated sheep blood); test: Hemolysis assay (red blood cell lysis); format: cell-based; conditions: concentration producing >20% hemolysis of red blood cells, 1 h, 37 C
Procedure: (§4) 1260 1.5 mL of mechanically defibrinated sheep blood (Hemostat Labs: DSB100) was placed in a microcentrifuge tube and was centrifuged at 10,000 rpm for ten minutes. Following the removal of the supernatant, the cells were resuspended in 1 mL of phosphate-buffered saline (PBS). This process was repeated two more times. The final suspension was diluted ten-fold with PBS and was aliquoted into microcentrifuge tubes containing the compounds which were previously serial diluted in PBS. TritonX 1265 (1% by volume) served as a positive control, while sterile PBS served as a negative control. All samples were incubated at 37 °C and shaken at 200 rpm for 1 hour. After the 1 hour, the samples were centrifuged at 10,000 rpm for 5 minutes and the absorbance of the supernatant was measured via UV spectroscopy at a 540 nm wavelength.

[5] = test system: Staphylococcus aureus ATCC 33591 (MRSA); test: Antibacterial broth microdilution assay (MIC), MRSA ATCC 33591; format: cell-based; conditions: Staphylococcus aureus; amount inhibiting >95% of growth (A600), 18 h; suffix 'I' = partial growth inhibition at the value, >95% at higher concentrations; read-out: MIC ATCC 33591
Procedure: as §1, §2, §3

[6] = MTT cytotoxicity assay, HEK293 viability; format: cell-based; conditions: human, HEK293 cells, 24 h treatment
Procedure: After determining that some of our compounds were quite potent for the inhibition of bacterial growth, we next turned toward assessing broader cytotoxicity trends. […] Further, our previously reported derivatives were also screened for red blood cell (RBC) hemolysis, and the assay indicated a lack of RBC lysis at the highest concentrations tested for all compounds (64 μg/mL).[6] […] This indicates it may have secondary mechanisms of cytotoxicity via nonspecific membrane rupturing activity, albeit, at a much higher concentration than its 2 μg/mL MIC. Next, we examined the compounds’ ability to decrease the viability of an immortalized mammalian cell line (HEK293) using a colorimetric MTT assay.[34] To our surprise, all of the compounds screened produced relatively potent cytotoxicity against this cell line. […] We screened a dihydropyrimidine where the guanidine was substituted with a urea (traditional Biginelli reaction derived), and this compound had no bacterial inhibition but continued to have significant mammalian cytotoxicity, further decoupling the antibacterial activity from mammalian cytotoxicity in these cases. Future studies involving the photoaffinity probes will examine the mechanism by which our compounds exert their growth-inhibiting effects in both bacterial and mammalian cells.
Mammalian cytotoxicity was evaluated using a commercially available MTT Cell proliferation assay 1275 (ATCC 30-1010K; Manassas, VA) following the included protocol. Briefly, Human Embryonic Kidney 293 (HEK-293; ATCC CRL-1353) cells were seeded onto 96 well plates (Nunclon Delta; ThermoFisher 167008; Waltham, MA) coated with Poly-D-Lysine (Thermofisher A3890401) at a density of […] cells per well in 80 µL of Eagle's Minimum Essential Medium (EMEM; ATCC 30-2003) with 10% Fetal Bovine Serum (ATCC 30-2021). Cells were incubated at 37 °C in a 5% CO2 atmosphere and allowed to 1280 adhere overnight, and then treated for 24 h with 20 µL of drugs dissolved in PBS with 0.5% DMSO, at concentrations ranging from 1×10^-4 M to 1×10^-9 M. Following treatment, 10 µL of MTT reagent was added to each well and allowed to incubate at 37 °C for 4 h. Then, 100 μL of detergent reagent was added to all wells, and they were stored at room temperature in the dark for 2 h. Absorbance was then read using a multi-mode spectrophotometer (Spectramax i3X; San Jose, CA) at a wavelength of 570 1285 nm. Raw values were normalized to a 0-100% scale using the maximum and minimum responses. To generate dose-response curves and IC50 values, normalized data were plotted against the log of the drug concentrations and fit to nonlinear curve [log(inhibitor) vs. response – variable slope (four parameters)] using GraphPad Prism version 7.05 (GraphPad Software; San Diego, CA).

[7] = test system: Staphylococcus aureus ATCC 12600; test: Antibacterial broth microdilution assay (MIC), methicillin-sensitive S. aureus ATCC 12600; format: cell-based; conditions: Staphylococcus aureus, ATCC12600; amount inhibiting >95% of growth (A600), 18 h; suffix 'I' = partial growth inhibition at the value, >95% at higher concentrations; read-out: MIC ATCC 12600
Procedure: as §1, §2, §3

[8] = test system: MRSA; parameters: method as in PMID 18931753, PMID 16883415; conditions: cited from earlier work
[9] = test system: mammalian toxicity; parameters: method as in PMID 18931753; conditions: cited from earlier work
[10] = test system: dihydrofolate reductase (DHFR); parameters: method as in PMID 18931753; conditions: cited from earlier work
[11] = Hemolysis assay (red blood cell lysis); format: cell-based, sheep; conditions: sheep, washed red blood cells from defibrinated sheep blood; 64 μg/mL; read-out: hemolysis (RBC lysis) at 64 μg/mL
Procedure: as §4

T1 sequence (P0A017 whole entry): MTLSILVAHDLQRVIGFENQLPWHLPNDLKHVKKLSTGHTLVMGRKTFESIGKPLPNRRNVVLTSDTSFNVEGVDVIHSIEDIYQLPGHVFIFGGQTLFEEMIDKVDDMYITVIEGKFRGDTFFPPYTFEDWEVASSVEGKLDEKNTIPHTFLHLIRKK

| Compound | DHFR inhibition (in words) [1] | antibacterial activity (in words) [2] | MIC [3] | lysis20 [4] | MIC [5] | IC50 at 24 h [6] | MIC [2] | MIC [7] | MIC ATCC 43300 [3] | MRSA growth inhibition (in words) [8] | mammalian toxicity (in words) [9] | DHFR inhibition (in words) [10] | hemolysis at 1 h, 64 μg/mL [11] |
| --- | --- | --- | --- | --- | --- | --- | --- | --- | --- | --- | --- | --- | --- |
| CCOC(=O)c1c(C)nc(N)nc1-c1cc(Cl)cc(Cl)c1 [compound 10] | lacked antibacterial activity and DHFR inhibition | lost all antibacterial activity; also recorded: lacked antibacterial activity | – | – | – | – | – | – | – | – | – | – | – |
| CCOC(=O)C1=C(CC)NC(N)=NC1c1ccc(CC(C)C)cc1 (stereo not drawn) [7c] | – | – | 4 µg/mL (≈ 12.1 µM) | >64 µg/mL | 8 µg/mL (≈ 24.3 µM) | 11 µM and 3.5 µg/mL | – | – | – | – | – | – | – |
| CCOC(=O)C1=C(c2ccccc2)NC(N)=NC1c1ccc(C(C)C)cc1 (stereo not drawn) [6r] | – | – | 8 µg/mL (≈ 22 µM) | >64 µg/mL | – | 9.5 µM and 3.1 µg/mL | 8 µg/mL (≈ 22 µM) | – | – | – | – | – | – |
| CCOC(=O)C1=C(c2cccc(C)c2)NC(N)=NC1c1cc(Cl)cc(Cl)c1 (stereo not drawn) [7i] | – | – | 8 µg/mL (≈ 19.8 µM) | >64 µg/mL | 8 µg/mL (≈ 19.8 µM) | 16 µM and 5.1 µg/mL | – | 8 µg/mL (≈ 19.8 µM) | – | – | – | – | – |
| CCOC(=O)C1=C(c2cccc(C(F)(F)F)c2)NC(N)=NC1c1cc(Cl)cc(Cl)c1 (stereo not drawn) [7e] | – | – | 4 µg/mL (≈ 8.73 µM) | >64 µg/mL | 4 µg/mL (≈ 8.73 µM) | 9.9 µM and 3.2 µg/mL | – | 4 µg/mL (≈ 8.73 µM) | – | – | – | – | – |
| CCOC(=O)C1=C(c2cccc(F)c2)NC(N)=NC1c1ccc(CC(C)C)cc1 (stereo not drawn) [7h] | – | – | 4 µg/mL (≈ 10.1 µM) | >64 µg/mL | 4 µg/mL (≈ 10.1 µM) | 4.4 µM and 1.4 µg/mL | – | 4 µg/mL (≈ 10.1 µM) | – | – | – | – | – |
| CCOC(=O)C1=C(c2ccccc2)NC(N)=NC1c1ccc(CC(C)C)cc1 (stereo not drawn) [7a] | – | – | 4 µg/mL (≈ 10.6 µM) | >64 µg/mL | – | 7.9 µM and 2.5 µg/mL | 4 µg/mL (≈ 10.6 µM) | 4 µg/mL (≈ 10.6 µM) | – | – | – | – | – |
| CCOC(=O)C1=C(c2ccccc2)NC(N)=NC1c1ccccc1OC (stereo not drawn) [6s] | – | – | > 64 µg/mL | >64 µg/mL | > 64 µg/mL | 87 µM and 28 µg/mL | – | > 64 µg/mL | >64 µg/mL | – | – | – | – |
| CCOC(=O)c1c(-c2ccccc2)nc(N)nc1-c1ccc(CC(C)C)cc1 [8a] | no inhibition was observed; also recorded: lacked antibacterial activity and DHFR inhibition | lacked antibacterial activity | – | – | – | – | > 64 µg/mL | – | – | – | – | – | – |
| CCOC(=O)C1=C(c2ccccc2)NC(N)=NC1c1cc(Cl)cc(Cl)c1 (stereo not drawn) [6j] | – | – | 8 µg/mL (≈ 20.5 µM) | >64 µg/mL | – | 11 µM and 3.5 µg/mL | – | 8 µg/mL (≈ 20.5 µM) | – | – | – | – | – |
| CCOC(=O)C1=C(c2ccccc2)NC(N)=NC1c1ccc(OC)cc1 (stereo not drawn) [6u] | – | – | > 64 µg/mL | >64 µg/mL | > 64 µg/mL | 14 µM and 4.5 µg/mL | > 64 µg/mL | – | – | – | – | – | – |
| CCOC(=O)C1=C(CC)NC(N)=NC1c1cc(Cl)cc(Cl)c1O (stereo not drawn) [compound 2, Emmacin] | – | – | – | – | – | – | – | – | – | found to inhibit MRSA growth | lack mammalian toxicity | previously reported to inhibit DHFR | – |
| CCOC(=O)C1=C(c2cccc(C(F)(F)F)c2)NC(N)=NC1c1ccc(CC(C)C)cc1 (stereo not drawn) [7f] | – | – | 2 µg/mL (≈ 4.49 µM) | 64 µg/mL | 2 µg/mL (≈ 4.49 µM) | 1.9 µM and 0.61 µg/mL | 2 µg/mL (≈ 4.49 µM) | 2 µg/mL (≈ 4.49 µM) | – | – | – | – | > 20% |
| CCOC(=O)C1=C(c2ccccc2)NC(N)=NC1c1ccc(-c2ccccc2)cc1 (stereo not drawn) [7b] | – | – | 4 µg/mL (≈ 10.1 µM) | >64 µg/mL | 4 µg/mL (≈ 10.1 µM) | 9.4 µM and 3 µg/mL | 4 µg/mL (≈ 10.1 µM) | 4 µg/mL (≈ 10.1 µM) | – | – | – | – | – |
| CCOC(=O)C1=C(c2ccccc2)NC(N)=NC1c1ccccc1 (stereo not drawn) [compound 6] | – | – | > 64 µg/mL | >64 µg/mL | > 64 µg/mL | 18 µM and 5.8 µg/mL | > 64 µg/mL | > 64 µg/mL | >64 µg/mL | – | – | – | – |
| CCOC(=O)C1=C(c2ccccc2)NC(N)=NC1c1cccc(Cl)c1 (stereo not drawn) [6i] | – | – | 32 µg/mL (≈ 89.9 µM) | >64 µg/mL | 32 µg/mL (≈ 89.9 µM) | 18 µM and 5.8 µg/mL | – | 32 µg/mL (≈ 89.9 µM) | – | – | – | – | – |
| CCOC(=O)C1=C(c2cccc(F)c2)NC(N)=NC1c1cc(Cl)cc(Cl)c1 (stereo not drawn) [7g] | – | – | 8 µg/mL (≈ 19.6 µM) | >64 µg/mL | 8 µg/mL (≈ 19.6 µM) | 14 µM and 4.5 µg/mL | – | 8 µg/mL (≈ 19.6 µM) | – | – | – | – | – |

From paper PMC11247627, “Evaluation of Antibacterial Functionalized Dihydropyrimidine Photoaffinity Probes Toward Mechanism of Action Studies” (ACS Medicinal Chemistry Letters, 2024)
